Laboratory results taken from paper PMC10291553, “Exploring Structure–Activity Relationships in Photodynamic Therapy Anticancer Agents Based on Ir(III)-COUPY Conjugates” (Journal of Medicinal Chemistry, 2023).
Values joined by “and” are separate entries in the source; they are usually repeats but may differ in a detail not shown here. Equal entries are not always repeated. Where two headings read alike, the source gives them in different places.

How the values were obtained:
[1] = tested on: SK-MEL-28; experiment: Photo- and cytotoxic activity determination (MTT), SK-MEL-28 cells; type: cell-based, human; conditions: normoxia; for SK-MEL-28 PI (phototherapeutic index), IC50 dark/IC50 irradiated: dark tested up to 100 μM
Source text: (§1) Having shown that the Ir(III)-COUPY conjugates can sensitize both type I and II ROS through spectroscopic techniques and readily internalize into living cells, their photocytotoxicity was screened in various cancer cell lines. This screening included two representative melanoma cell lines (human A375 and […] human SK-MEL-28) and cancer cells with resistance to the clinical drug cisplatin. For the latter, both sensitive and cisplatin-resistant ovarian cancer cells (A2780 and A2780cis) as well as HeLa cells, which also show a degree of chemoresistance to the platinum anticancer drug in vitro,[54] were used. For the determination of dark and light cytotoxicity, dose–response curves were assayed from both conditions to provide the correspondent IC50 values, which correspond to the concentration needed for inhibition of cell growth by 50%. Phototherapeutic index (PI) was calculated as the ratio of dark to light IC50 value for each compound.
(§2) A375, HeLa, and SK-MEL-28 cells were cultured in Dulbecco’s modified Eagle medium (DMEM) supplemented with 10% FBS, L-glutamine, and 1% penicillin–streptomycin. A2780 and A2780cis cells were grown in RPMI-1640 cell medium supplemented with 10% fetal bovine serum (FBS) and 2 mM L-glutamine. Acquired resistance to cisplatin in the A2780cis cell line was maintained by adding cisplatin 1 μM to culture medium every second passage. Cells were cultured in a humidified incubator at 310 K with 5% CO2 atmosphere and subcultured two or three times a week with appropriate densities and were confirmed to be mycoplasma-free using a standard Hoechst DNA staining method.
(§3) A2780, A2780cis, HeLa, A375, and SK-MEL-28 cells were maintained at logarithmic growth-phase and cultured in 96-well plates at a density of 5000 cells/well in complete medium for 24 h at 310 K, 5% CO2 in a humidified incubator. For hypoxia experiments, a hypoxia condition was set up by Tissue Culture Service at University of Murcia using nitrogen (N2) to displace O2 down to a minimum of 2% in a Forma Steri-Cycle i160 incubator (Thermo Fisher Scientific). Serial dilutions of the compounds were added at the final concentrations in the range of 0–100 μM in a final volume of 100 μL per well. A light-based treatment schedule was performed as follows: 1 h incubation with the compounds in the dark, followed by 1 h incubation under irradiation conditions by placing the Photoreactor EXPO-LED from Luzchem (Canada) fitted with green lamps (final light intensity applied of 1.5 mW/cm^2 at λmax = 520 nm) inside the CO2 incubator. All the cell culture plates subjected to light irradiation included untreated controls to verify that cell viability was not affected by light. Then, treatment-containing media was removed, and fresh media was added for a 48 h cell recovery period; the temperature throughout the experiment remained at 310 K. Dark control samples were placed in the same dark conditions and then kept incubated for 1 h in the dark in the humidified CO2 incubator. Medium was then aspirated by suction, cells were loaded with 50 μL of MTT solution (1 mg/mL) for additional 4 h and then removed, and 50 μL of DMSO was added to solubilize the purple formazan crystals formed in active cells. The absorbance was measured at 570 nm using a microplate reader (FLUOstar Omega), and the IC50 values were calculated based on the inhibitory rate curves using the following equation [drawing 4] 4 where I represents the percentage inhibition of viability observed, Imax is the maximal inhibitory effect, IC50 is the concentration that inhibits 50% of maximal growth, C is the concentration of the treatment, and n is the slope of the semi-logarithmic dose–response sigmoidal curves. The non-linear fitting was performed using SigmaPlot 14.0 software. All experiments were performed in three independent studies with n = 3 replicates per concentration level. For a detailed phototoxicity procedure, ref ([43]) includes technical explanations.

[2] = tested on: HeLa; experiment: Photo- and cytotoxic activity determination (MTT), HeLa cells; type: cell-based; conditions: normoxia; for HeLa PI (phototherapeutic index), IC50 dark/IC50 irradiated: 520 nm, dark tested up to 100 μM; for IC50: 48 h drug-free medium
Source text: as §1, §2, §3

[3] = tested on: A2780; experiment: Photo- and cytotoxic activity determination (MTT), A2780 cells; type: cell-based; conditions: normoxia; for A2780 PI (phototherapeutic index), IC50 dark/IC50 irradiated: 520 nm, dark tested up to 100 μM; for IC50: 48 h drug-free medium
Source text: as §1, §2, §3

[4] = tested on: A2780cis cells; experiment: Photo- and cytotoxic activity determination (MTT), A2780cis cells, normoxia or hypoxia; type: cell-based; conditions: for Partial inhibition (% of cell growth inhibition with respect to untreated controls), Hypoxia / Partial inhibition (% of cell growth inhibition with respect to untreated controls), Normoxia / inhibition at 250 µM: 250 μM, 2 h incubation in the dark, 48 h drug-free recovery; for Hypoxia PI (phototherapeutic index) / Normoxia PI (phototherapeutic index): dark tested up to 250 μM; for A2780cis PI (phototherapeutic index), IC50 dark/IC50 irradiated: dark tested up to 100 μM
How it was run: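 Green-light photocytotoxicity: 1 h dark preincubation with compound, 1 h light (520 nm, 1.5 mW/cm^2), 48 h recovery, MTT at 570 nm; dark controls run in parallel. IC50 fitted to inhibition curves.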

[5] = 1 h incubation + 1 h green light 520 nm, 1.5 mW cm^–2, 48 h drug-free medium, read-out: SK-MEL-28 light IC50
[6] = kept in the dark, 2 h treatment, 48 h drug-free medium, read-out: SK-MEL-28 dark IC50
[7] = 1 h incubation + 1 h green light 520 nm, 1.5 mW cm^–2, read-out: HeLa light IC50
[8] = kept in the dark, 2 h treatment, read-out: HeLa dark IC50
[9] = 1 h incubation + 1 h green light 520 nm, 1.5 mW cm^–2, read-out: A2780 light IC50
[10] = kept in the dark, 2 h treatment, read-out: A2780 dark IC50
[11] = A2780cis, hypoxia 2% O2, 520 nm
[12] = A2780cis, hypoxia 2% O2, dark, tested up to 250 μM, read-out: Hypoxia Dark IC50
[13] = A2780cis, normoxia 21% O2, 520 nm
[14] = A2780cis, normoxia 21% O2, dark, tested up to 250 μM, read-out: Normoxia Dark IC50
[15] = hypoxia, 520 nm, read-out: A2780cis Light 520 nm IC50 (microM) Hypoxia
[16] = hypoxia, dark, read-out: A2780cis Dark IC50 (microM) Hypoxia
[17] = normoxia, 1 h incubation + 1 h green light 520 nm, 1.5 mW cm^–2, 48 h drug-free medium, read-out: A2780cis light IC50
[18] = normoxia, dark, up to 250 microM, read-out: A2780cis Dark IC50 (microM) Normoxia
[19] = normoxia, kept in the dark, tested up to 100 μM, 2 h treatment, 48 h drug-free medium, read-out: A2780cis dark IC50

| SMILES | SK-MEL-28 PI (phototherapeutic index), IC50 dark/IC50 irradiated ([1]; 520 nm) | IC50 [1, 5] [µM] | IC50 [1, 6] [µM] | HeLa PI (phototherapeutic index), IC50 dark/IC50 irradiated [2] | IC50 [2, 7] [µM] | IC50 [2, 8] [µM] | A2780 PI (phototherapeutic index), IC50 dark/IC50 irradiated [3] | IC50 [3, 9] [µM] | IC50 [3, 10] [µM] | Partial inhibition (% of cell growth inhibition with respect to untreated controls), Hypoxia ([4]; A2780cis, hypoxia) [%] | Partial inhibition (% of cell growth inhibition with respect to untreated controls), Normoxia ([4]; A2780cis, normoxia) [%] | Hypoxia PI (phototherapeutic index) [4, 11] | IC50 [4, 12] [µM] | Normoxia PI (phototherapeutic index) [4, 13] | IC50 [4, 14] [µM] | IC50 [4, 15] [µM] | IC50 [4, 16] [µM] | A2780cis PI (phototherapeutic index), IC50 dark/IC50 irradiated ([4]; normoxia, 520 nm) | IC50 [4, 17] [µM] | IC50 [4, 18] [µM] | also measured |
| --- | --- | --- | --- | --- | --- | --- | --- | --- | --- | --- | --- | --- | --- | --- | --- | --- | --- | --- | --- | --- | --- |
| CCCCn1c2[n+](c3cc(C(=O)NCCCCCC(=O)NCCCNC(=O)C[n+]4ccc(/C(C#N)=C5/C=C(C)c6ccc(N(CC)CC)cc6O5)cc4)ccc31)[Ir-3]13([c]4ccccc4-c4[nH]c5ccccc5[n+]41)([c]1ccccc1-c1[nH]c4ccccc4[n+]13)[n+]1c-2ccc2ccccc21 [3d] | > 40 | 2.5 ± 0.2 | > 100 | > 50 | 2 ± 0.4 | > 100 | > 56 | 1.78 ± 0.07 | > 100 | 27 ± 4 | 21 ± 1 | > 131.6 and > 131 | > 250 | > 227.3 and > 227 | > 250 | 1.9 ± 0.2 | > 250 | > 91 | 1.1 ± 0.2 | > 250 | IC50 [4, 19]: > 100 µM |
| CC1=C/C(=C(\C#N)c2cc[n+](C)cc2)Oc2c1cc1c3c2CCCN3CCC1 [1c] | 60 |  |  | 24 |  |  | 57 |  |  |  |  | 36.4 |  | 100.0 |  |  |  | 100 |  |  | IC50 ([1]; Homo sapiens, SK-MEL-28, 1 h incubation + 1 h green light 520 nm, 1.5 mW cm^–2, 48 h drug-free medium, read-out: SK-MEL-28 light IC50): 0.2 ± 0.01 µM; IC50 ([1]; Homo sapiens, SK-MEL-28, kept in the dark, 2 h treatment, 48 h drug-free medium, read-out: SK-MEL-28 dark IC50): 12 ± 1 µM; IC50 ([2]; Homo sapiens, HeLa, 1 h incubation + 1 h green light 520 nm, 1.5 mW cm^–2, read-out: HeLa light IC50): 1.1 ± 0.8 µM; IC50 ([2]; Homo sapiens, HeLa, kept in the dark, 2 h treatment, read-out: HeLa dark IC50): 26 ± 4 µM; IC50 ([3]; Homo sapiens, A2780, 1 h incubation + 1 h green light 520 nm, 1.5 mW cm^–2, read-out: A2780 light IC50): 0.09 ± 0.01 µM; IC50 ([3]; Homo sapiens, A2780, kept in the dark, 2 h treatment, read-out: A2780 dark IC50): 5.1 ± 0.9 µM; inhibition at 250 µM ([4]; A2780cis, hypoxia, read-out: Partial inhibition (% of cell growth inhibition with respect to untreated controls), Hypoxia): 100%; inhibition at 250 µM ([4]; A2780cis, normoxia, read-out: Partial inhibition (% of cell growth inhibition with respect to untreated controls), Normoxia): 100%; IC50 ([4]; A2780cis, hypoxia, 520 nm, read-out: A2780cis Light 520 nm IC50 (microM) Hypoxia): 0.6 ± 0.1 µM; IC50 ([4]; A2780cis, hypoxia, dark, read-out: A2780cis Dark IC50 (microM) Hypoxia): 20 ± 2 µM; IC50 ([4]; A2780cis, normoxia, 1 h incubation + 1 h green light 520 nm, 1.5 mW cm^–2, 48 h drug-free medium, read-out: A2780cis light IC50): 0.15 ± 0.04 µM; IC50 ([4]; A2780cis, normoxia, kept in the dark, tested up to 100 μM, 2 h treatment, 48 h drug-free medium, read-out: A2780cis dark IC50): 15 ± 2 µM |
| CCCCn1c2[n+](c3cc(C(=O)NCCCNC(=O)C[n+]4ccc(/C(C#N)=C5/C=C(C)c6cc7c8c(c6O5)CCCN8CCC7)cc4)ccc31)[Ir-3]13([c]4ccccc4-c4[nH]c5ccccc5[n+]41)([c]1ccccc1-c1[nH]c4ccccc4[n+]13)[n+]1c-2ccc2ccccc21 [3c] |  | > 100 | > 100 | > 2.2 | 45 ± 4 | > 100 | > 48 | 2.1 ± 0.2 | > 100 | 61 ± 8 | 74 ± 10 | > 31.3 and > 31 | > 250 | > 240.4 and > 240 | > 250 | 8 ± 1 | > 250 | > 96 | 1.04 ± 0.02 | > 250 | IC50 ([1]; 520 nm, read-out: SK-MEL-28 Light 520 nm IC50 (microM) Normoxia): > 100 µM; IC50 ([1]; dark, read-out: SK-MEL-28 Dark IC50 (microM) Normoxia): > 100 µM; IC50 [4, 19]: > 100 µM |
| CCCCn1c2[n+](c3cc(C(=O)NC[C@H]4CC[C@H](C(=O)NCCCNC(=O)C[n+]5ccc(/C(C#N)=C6/C=C(C)c7ccc(N(CC)CC)cc7O6)cc5)CC4)ccc31)[Ir-3]13([c]4ccccc4-c4[nH]c5ccccc5[n+]41)([c]1ccccc1-c1[nH]c4ccccc4[n+]13)[n+]1c-2ccc2ccccc21 [3e] | > 13 | 7.6 ± 0.9 | > 100 | > 11 | 9.3 ± 0.8 | > 100 | > 53 | 1.9 ± 0.2 | > 100 | 12 ± 3 | 18 ± 1 | > 147.1 and > 147 | > 250 | > 268.8 and > 269 | > 250 | 1.7 ± 0.3 | > 250 | > 108 | 0.93 ± 0.04 | > 250 | IC50 [4, 19]: > 100 µM |
